# In patent US11420962B2, “Indene derivatives useful in treating pain and inflammation” (TARO PHARMACEUTICALS INC., priority 2018, dated 2022):
# Experiments:
# [1] = tested on: Human DRG; experiment: Human dorsal root ganglion (DRG) excitability response; format: cell-based; conditions: Table 6; Biological Example 3, human DRG; read-out: Scoring (IC50)
# Experimental: Human DRGs are transferred into a dissection vessel containing a cold (4° C.), fresh proprietary dissection solution. DRGs are maintained completely submerged in dissection solution followed by dissection by an appropriate method.
# Cells are plated into a 96 well plate. Calcium dye (Fluo 8-AM) is loaded in each well for a period of 20 to 25 min, maintaining temperature at ambient. The baseline excitability profile (ability of firing action potentials) of the cells is assessed at both low and high threshold stimulations using optical EFS. Following baseline profiling, cells are subjected to test compounds.
# Representative compounds of the invention (i.e., test compounds) are added to cells and the cells are stimulated (using EFS) to induce action potentials at regular intervals, according to the parameters outlined in Table 5. Four concentrations of each compound are utilized and directly injected into separate wells to allow for determination of a dose response (IC50). At the end of the protocol, the nociceptor positive control compound (capsaicin) is perfused into the cells at 200 nM and signal recorded. […]
# Recordings are performed in stream mode at 100 Hz for the EFS portion of the above protocol and in time lapse model at 0.2 Hz for the final step utilizing capsaicin. For each concentration tested, the number of cells blocked vs baseline will be counted at different thresholds. […]
# [2] = tested on: Rats (male, Sprague-Dawley); experiment: TNBS colitis assay in rats; format: in vivo; conditions: 30 mg/kg dose, PO, QD for 7 days
# Experimental: TNBS Colitis Assay of Representative Compounds in Rats Rats (male, Sprague-Dawley) were anaesthetized and a solution of TNBS (48 mg/kg) in ethanol, was instilled intra-rectally to induce colitis, 1 h after oral dosing of representative compounds of the invention (i.e., test compounds). Test compounds were dosed PO, QD for 7 days, using prednisolone as a reference standard. […] On Day 7, rats were euthanized and the colon was evaluated for length, weight, wall thickness, ulcer number and length and for the presence of adhesions and strictures. A colonic score was calculated based on the severity of the colonic parameters.
# [3] = tested on: female Sprague-Dawley rats; experiment: Cyclophosphamide-induced cystitis in rats (visceral pain); format: in vivo; conditions: 0.3 to 1.0 mg/kg dose, oral gavage four days; 4 h after cyclophosphamide
# Experimental: Representative compounds of the invention (i.e., test compounds) were administered to female Sprague-Dawley rats, for four days by oral gavage in 0.9% saline. Two hours after the fourth dose, the rats were challenged by intraperitoneal administration of cyclophosphamide (150 mg/kg). Referred mechanical sensitivity was measured four hours later by applying a series of eight von Frey filaments to the lower abdomen, three times each for 1-2 seconds with a 5 second interval between applications. Responses were scored (zero-no response; one-response, two-response and change of position, and three-response, change of position and licking the site or vocalization), totaled and the percent of maximal possible nociceptive score calculated. Ibuprofen was used as a reference standard.
# [4] = tested on: male Sprague-Dawley rats; experiment: Rat chronic prostatitis/chronic pelvic pain (carrageenan); format: in vivo; conditions: Day 3, 30 mg/kg dose, oral gavage QD
# Experimental: Representative compounds of the invention (i.e., test compounds) were administered for 11 days by oral gavage in 0.9% saline (3, 10 or 30 mg/kg QD; 5 mL/kg dose volume) to male Sprague-Dawley rats. Carrageenan-mediated chronic prostatitis/chronic pelvic pain (CP/CPPS) established in rats (10 per group) by administration of an intraprostatic injection of carrageenan (˜12.5 μL/lobe of a 30 mg/mL solution) into both ventral prostate lobes, on Day 0. Referred mechanical sensitivity was measured on Days 0, 1, 3 and 7, 2 hours after test compound, or vehicle (saline) administration, by applying 6 von Frey filaments with increasing forces of 0.16-2 g to the scrotal skin area, 3 times each for 1-2 seconds, with a 5-second interval between applications. Responses were scored (zero-no response; one-reaction of the animal, two-jump, and three-licking the site) and expressed as the nociceptive threshold for each day of assessment. Ibuprofen was used as a reference standard.
# According to the above assay, Compound Ia-1 restored nociceptive threshold to 65% of baseline on Day 3 at the 30 mg/kg dose as compared to the reference standard, ibuprofen (300 mg/kg), which restored the threshold to 120% of the baseline.
# [5] = tested on: Mice (male, C57Bl/6); experiment: Bleomycin lung fibrosis; format: in vivo
# Source text: Mice (male, C57BL/6) were randomized into treatment groups and fibrosis was induced by intratracheal administration of bleomycin. Treatment with representative compounds of the invention (i.e., test compounds) or reference standard (pirfenidone) was initiated on Day −1 and administered daily unto Day 7 or Day 21. For groups undergoing bronchoalveolar lavage (BAL), the trachea was cannulated and infused with ice cold Hank's Balanced Salt Solution (HBSS, pH 7.2). The collected lavage fluid was analyzed for cell numbers (total and differential counts) and levels of soluble TGFβ and collagen. For other groups, the lungs were either snap-frozen or formalin-fixed for further analyses.
compound,measurement,setting,value
"C=C1CC[C@H]2[C@H](CN)[C@@H]([C@@]3(C)Cc4cn[nH]c4C[C@@H]3CO)CC[C@]12C [Ia-1, ((5R,6S)-5-((3aS,4R,5S,7aS)-4-(aminomethyl)-7a-methyl-1-methyleneoctahydro-1H-inden-5-yl)-5-methyl-4,5,6,7-tetrahydro-1H-indazol-6-yl)methanol]",IC50,[1],< 2 µM
same,inhibition of the colonic score,[2],36%
same,"nociceptive threshold, % of baseline (pre-challenge) levels",[3],70-91%
same,"nociceptive threshold restored, % of baseline",[4],65%
same,reduction in BAL macrophages as compared to the vehicle,"[5]; Day 7, 3.0 mg/kg dose",41%
same,reduction in BAL macrophages as compared to the vehicle,"[5]; Day 7, 30 mg/kg dose",35%
same,reduction in fibrosis,"[5]; Day 14, 30 mg/kg dose (first mention)",31%
same,reduction in fibrosis,"[5]; Day 14, 30 mg/kg dose (second mention)",34%
